In patent US12447191B2, “Topical application of polypeptide in the treatment of skin damage” (WUHAN YICHENG BIOTECHNOLOGY CO., LTD., priority 2020, dated 2025):
No end group written: not given here.

Experiments:
HaCAT cells = experiment: Cell Differentiation Experiment; format: cell-based, human; settings: 10 μL polypeptide (10 mg/ml), 48 h
Experimental: 1. Cell Resuscitation: • (1) HaCAT cells (human immortalized epidermal cells, purchased from Wuhan University Cell Preservation Center, GDC106) are taken out of liquid nitrogen, quickly put into a 37° C. water bath, and gently shake the cryopreservation tube to dissolve the cryopreservation solution;
(2) After dissolution, the HaCAT cells were transferred to a centrifuge tube containing 5 ml of culture medium. The cells were collected by centrifugation, centrifuged at 1000 rmp at room temperature for 5 min, and the supernatant was discarded;
(3) The HaCAT cells were suspended in a complete medium containing 10% fetal bovine serum, inoculated into a culture dish, gently blown and mixed, and cultured at 37° C. and 5% CO2 saturated humidity.
When the cell density reaches 80%, the HaCAT cells will be subcultured:
(1) Discard the culture medium and wash it once with PBS;
(2) Add 1-2 ml 0.25% trypsin to digest the cells. Observe under the microscope. Digest for 1-2 min. It can be seen that the cells are separated from each other and become round, that is, the digestion is completed;
(3) Quickly discard the trypsin, add the complete culture medium, blow the cells to make a single cell suspension, pass the passage in a ratio of 1:3, and expand the culture under 37° C. and 5% CO2 saturated humidity. […]

[1] = test system: deep II degree burn (scald wound); experiment: Animal Experiment 1: rat scald (deep II degree burn) model; format: in vivo, SD rats; settings: after 14 days of treatment; smeared twice a day on scald wound; other side untreated control
Experimental: The following will verify the therapeutic function of the medicament prepared in embodiments 1 to 3 on trauma and burns through experiments. The pharmacodynamic effects of polypeptide drugs were evaluated by establishing a rat burn model or a rat trauma model. Experimental Purpose: to study the therapeutic effect of polypeptide drug of the invention on scald. Experimental Animals: SD rats, half male and half female, 200 g±10 g. The Modeling Scheme: the rats' back were depilated with 10% barium sulfide the day before the experiment, and anesthetized by intraperitoneal injection before scalding. The rat models were made with a constant temperature and pressure scald apparatus. After scalding, 5 ml lactate Ringer's solution was intraperitoneally injected immediately to prevent shock. The criteria for successful modeling: disappearance of local epidermis; expansion of blood vessels in epidermis, dermis and subcutaneous tissue; edema of subcutaneous tissue; infiltration of acute and chronic inflammatory cells in dermis and subcutaneous tissue; the above description is a deep II degree burn. Animal Grouping: 8 SD rats in total Ointment Group (Ointment prepared in embodiment 2): 4 rats, half male and half female, scalded on both sides of the body. After scalding, one side was administered, and the other side was used as control. […]

Sequence: MPYSTELIFYIEMDP [polypeptide]
- Differentiation of HaCAT cells (morphology on photos) (HaCAT cells): some cells are differentiated
- Photo observation of wound healing [1]: can obviously promote the wound healing
